Patent US20080009418A1, “Selective Inhibitors” (Alchemia LTD., priority 2004, published 2008)

Assays:
[1] = biological target: T1, Human opioid (ORL1) (Homo sapiens, UniProt P41146); test: Radioligand binding, human opioid ORL1 membranes, FlashPlate, [125I]-Nociceptin; settings: compound at 10 μM; for A10 radioligand binding inhibition: human ORL1 membranes
T1 construct: purchased Perkin Elmer Biosignal
In short: (§1)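 Cloned human receptor membranes were coated onto FlashPlate wells and incubated with radioligand and compound (added from a 0.5 mM DMSO daughter plate) for 1 hour at room temperature in the dark. Scintillation counting gave percent inhibition, with DMSO defining total and reference ligand defining non-specific binding.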

[2] = biological target: T2, Human neuropeptide Y (NPY-Y1) (Homo sapiens, UniProt P25929); test: Radioligand binding, human neuropeptide Y NPY-Y1 membranes, FlashPlate, [125I]-PYY; settings: compound at 10 μM; for A9 radioligand binding inhibition: human NPY-Y1 membranes
T2 construct: purchased Perkin Elmer Biosignal
T2 sequence (P25929 1-384): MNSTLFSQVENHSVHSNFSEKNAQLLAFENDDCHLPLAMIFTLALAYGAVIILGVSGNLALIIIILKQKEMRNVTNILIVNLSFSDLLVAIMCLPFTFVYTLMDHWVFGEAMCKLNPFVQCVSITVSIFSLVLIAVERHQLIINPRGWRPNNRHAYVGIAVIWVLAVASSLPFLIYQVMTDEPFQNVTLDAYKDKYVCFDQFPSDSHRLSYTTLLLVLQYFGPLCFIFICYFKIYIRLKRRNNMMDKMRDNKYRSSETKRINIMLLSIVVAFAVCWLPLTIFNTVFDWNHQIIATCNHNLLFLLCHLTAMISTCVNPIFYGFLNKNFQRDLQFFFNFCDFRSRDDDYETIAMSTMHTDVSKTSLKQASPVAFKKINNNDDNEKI
In short: as §1

[3] = biological target: T3, Human μ-opioid (MOP) (Homo sapiens, UniProt P35372); test: Radioligand binding, human μ-opioid (MOP) membranes, FlashPlate, [3H]-Naloxone; settings: compound at 10 μM; for A7 radioligand binding inhibition: human μ-opioid (MOP) membranes
T3 construct: purchased Perkin Elmer Biosignal
T3 sequence (P35372 whole entry): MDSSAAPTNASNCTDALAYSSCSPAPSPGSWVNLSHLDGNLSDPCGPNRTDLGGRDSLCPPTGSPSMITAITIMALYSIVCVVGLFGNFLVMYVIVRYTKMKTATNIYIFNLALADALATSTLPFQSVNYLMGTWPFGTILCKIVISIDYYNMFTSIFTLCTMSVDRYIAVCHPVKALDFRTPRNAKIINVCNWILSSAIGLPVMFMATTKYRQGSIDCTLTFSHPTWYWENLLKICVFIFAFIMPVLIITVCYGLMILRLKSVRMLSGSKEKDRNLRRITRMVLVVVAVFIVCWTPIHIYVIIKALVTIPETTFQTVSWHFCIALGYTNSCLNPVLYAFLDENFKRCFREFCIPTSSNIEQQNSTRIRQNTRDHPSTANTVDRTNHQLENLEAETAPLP
In short: as §1

[4] = biological target: T4, Human melanin-concentrating hormone (MCH1) (Homo sapiens, UniProt Q99705); test: Radioligand binding, human melanin-concentrating hormone MCH1 membranes, FlashPlate, [125I]-S36057; settings: compound at 10 μM; for A6 radioligand binding inhibition: human MCH1 membranes
T4 construct: purchased Perkin Elmer Biosignal
T4 sequence (Q99705 whole entry): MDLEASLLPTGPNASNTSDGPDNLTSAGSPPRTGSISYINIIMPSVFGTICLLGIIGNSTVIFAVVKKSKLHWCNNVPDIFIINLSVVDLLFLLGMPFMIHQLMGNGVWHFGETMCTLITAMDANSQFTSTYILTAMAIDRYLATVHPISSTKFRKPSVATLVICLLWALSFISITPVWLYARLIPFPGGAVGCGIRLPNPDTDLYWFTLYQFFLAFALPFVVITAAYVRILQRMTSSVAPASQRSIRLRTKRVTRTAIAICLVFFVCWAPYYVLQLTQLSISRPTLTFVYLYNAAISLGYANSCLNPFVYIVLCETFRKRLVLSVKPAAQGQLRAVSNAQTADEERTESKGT
In short: as §1

[5] = biological target: T5, Human melanocortin (MC5) (Homo sapiens, UniProt P33032); test: Radioligand binding, human melanocortin MC5 membranes, FlashPlate, [125I]-NDP-αMSH; settings: compound at 10 μM; for A5 radioligand binding inhibition: human melanocortin MC5 membranes
T5 construct: purchased Perkin Elmer Biosignal
T5 sequence (P33032 whole entry): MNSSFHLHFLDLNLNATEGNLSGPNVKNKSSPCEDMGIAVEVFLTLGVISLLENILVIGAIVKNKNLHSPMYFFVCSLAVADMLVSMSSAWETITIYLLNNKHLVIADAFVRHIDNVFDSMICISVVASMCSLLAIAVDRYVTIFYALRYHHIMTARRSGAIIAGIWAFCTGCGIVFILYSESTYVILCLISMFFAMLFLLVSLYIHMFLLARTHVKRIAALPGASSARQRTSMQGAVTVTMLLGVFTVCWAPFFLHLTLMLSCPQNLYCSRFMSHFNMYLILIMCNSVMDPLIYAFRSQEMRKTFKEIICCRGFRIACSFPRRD
In short: as §1

[6] = biological target: T6, Human neurokinin (NK1) (Homo sapiens, UniProt P25103); test: Radioligand binding, human neurokinin NK1 membranes, filtration, [125I]-Substance P; settings: compound at 10 μM; for A8 radioligand binding inhibition: human neurokinin NK1 membranes
T6 construct: purchased Perkin Elmer Biosignal
T6 sequence (P25103 whole entry): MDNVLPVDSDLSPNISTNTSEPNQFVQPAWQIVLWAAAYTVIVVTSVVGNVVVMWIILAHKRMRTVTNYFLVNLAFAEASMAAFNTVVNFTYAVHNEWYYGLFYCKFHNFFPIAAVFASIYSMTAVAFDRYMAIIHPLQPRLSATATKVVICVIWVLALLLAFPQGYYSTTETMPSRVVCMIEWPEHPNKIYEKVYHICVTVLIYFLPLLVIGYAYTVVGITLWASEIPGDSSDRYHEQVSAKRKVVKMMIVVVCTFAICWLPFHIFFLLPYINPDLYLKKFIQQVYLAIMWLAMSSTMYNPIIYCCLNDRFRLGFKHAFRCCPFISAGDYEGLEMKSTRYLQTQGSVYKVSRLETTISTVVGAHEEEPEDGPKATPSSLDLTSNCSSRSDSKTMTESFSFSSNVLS
In short: (§2)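 Percent inhibition of radioligand binding measured on recombinant human membranes: NK1 with [125I]-Substance P, KOP with [3H]-Diprenorphine. Incubation 1 h at room temperature, then harvest onto 0.3% PEI-soaked filters, cold Tris-HCl pH 7.4 washes and scintillation counting; non-specific binding from reference ligand wells.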

[7] = biological target: T7, Human Melanocortin (MC3) (Homo sapiens, UniProt P41968); test: Radioligand binding, human melanocortin MC3 membranes, FlashPlate, [125I]-NDP-αMSH; settings: compound at 10 μM; for A3 radioligand binding inhibition: human melanocortin MC3 membranes
T7 construct: purchased Perkin Elmer Biosignal
T7 sequence (P41968 whole entry): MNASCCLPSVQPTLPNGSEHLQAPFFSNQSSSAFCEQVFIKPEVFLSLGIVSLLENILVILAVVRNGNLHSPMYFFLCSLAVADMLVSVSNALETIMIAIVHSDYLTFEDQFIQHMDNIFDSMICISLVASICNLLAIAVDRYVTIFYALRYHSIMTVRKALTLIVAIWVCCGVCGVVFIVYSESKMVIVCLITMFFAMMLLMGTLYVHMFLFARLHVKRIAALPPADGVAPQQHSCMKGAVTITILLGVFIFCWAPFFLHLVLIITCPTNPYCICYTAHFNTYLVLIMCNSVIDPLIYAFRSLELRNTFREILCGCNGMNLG
In short: as §1

[8] = biological target: T8, Human κ-Opioid (KOP) (Homo sapiens, UniProt P41145); test: Radioligand binding, human κ-opioid (KOP) membranes, filtration, [3H]-Diprenorphine; settings: compound at 10 μM; for A2 radioligand binding inhibition: human κ-opioid (KOP) membranes
T8 construct: purchased Perkin Elmer Biosignal
T8 sequence (P41145 whole entry): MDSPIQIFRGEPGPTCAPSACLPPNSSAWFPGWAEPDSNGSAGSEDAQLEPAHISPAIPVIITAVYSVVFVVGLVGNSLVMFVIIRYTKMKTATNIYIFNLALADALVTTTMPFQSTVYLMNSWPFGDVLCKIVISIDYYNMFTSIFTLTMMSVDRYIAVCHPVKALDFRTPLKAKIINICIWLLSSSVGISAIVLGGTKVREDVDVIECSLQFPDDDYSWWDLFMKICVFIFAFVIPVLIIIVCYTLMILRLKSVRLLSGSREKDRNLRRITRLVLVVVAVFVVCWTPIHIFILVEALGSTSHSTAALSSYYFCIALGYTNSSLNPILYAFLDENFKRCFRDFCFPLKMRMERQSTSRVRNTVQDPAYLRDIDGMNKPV
In short: as §2

[9] = biological target: T9, Mouse urotensin (mUR2) (Mus musculus, UniProt Q8VIH9); test: Radioligand binding, mouse urotensin mUR2 membranes, FlashPlate, [125I]-Urotensin II; settings: compound at 10 μM; for A11 radioligand binding inhibition: mouse urotensin mUR2 membranes
T9 construct: purchased Perkin Elmer Biosignal
T9 sequence (Q8VIH9 1-385): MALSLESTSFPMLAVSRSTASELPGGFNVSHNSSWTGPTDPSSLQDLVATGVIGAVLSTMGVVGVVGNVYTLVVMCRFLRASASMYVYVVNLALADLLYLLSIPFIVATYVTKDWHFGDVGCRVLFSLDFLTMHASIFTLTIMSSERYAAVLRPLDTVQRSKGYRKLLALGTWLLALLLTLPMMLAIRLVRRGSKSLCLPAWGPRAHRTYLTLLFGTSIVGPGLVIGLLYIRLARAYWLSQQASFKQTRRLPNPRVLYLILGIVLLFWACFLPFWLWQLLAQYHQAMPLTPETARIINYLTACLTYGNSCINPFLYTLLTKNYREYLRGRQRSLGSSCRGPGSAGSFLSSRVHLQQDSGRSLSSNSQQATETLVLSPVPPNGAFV
In short: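 Cloned mouse urotensin (mUR2) receptor membranes from Perkin Elmer Biosignal were immobilized in FlashPlate microplates using a proprietary coating. Each well got 19.5 μl buffer, then 0.5 μl of DMSO, reference ligand, or compound. Adding 5 μl of [125I]-Urotensin II, diluted to 5× final concentration in binding buffer, started binding. Plates were sealed with TopSeal-A and incubated 1 hour at room temperature in the dark. Wells were counted for 30 seconds each on a TopCount after a 60-second delay, and percentage inhibition was calculated.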

[10] = biological target: T10, Human δ-opioid (DOP) (Homo sapiens, UniProt P41143); test: Radioligand binding, human δ-opioid (DOP) membranes, FlashPlate, [3H]-Bremazocine; settings: compound at 10 μM; for A1 radioligand binding inhibition: human δ-opioid (DOP) membranes
T10 construct: purchased Perkin Elmer Biosignal
T10 sequence (P41143 whole entry): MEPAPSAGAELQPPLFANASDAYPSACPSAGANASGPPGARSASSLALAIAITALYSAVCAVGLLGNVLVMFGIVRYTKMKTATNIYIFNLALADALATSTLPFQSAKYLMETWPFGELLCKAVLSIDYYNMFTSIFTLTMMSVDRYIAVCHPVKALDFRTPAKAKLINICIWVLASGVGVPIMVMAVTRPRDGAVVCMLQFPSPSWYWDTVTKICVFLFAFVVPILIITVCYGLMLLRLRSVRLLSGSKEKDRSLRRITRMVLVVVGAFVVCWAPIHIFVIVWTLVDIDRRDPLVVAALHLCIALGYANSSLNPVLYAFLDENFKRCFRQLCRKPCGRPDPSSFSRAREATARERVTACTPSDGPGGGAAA
In short: as §1

[11] = biological target: T11, Human Melanocortin (MC4) (Homo sapiens, UniProt P32245); test: Radioligand binding, human melanocortin MC4 membranes, FlashPlate, [125I]-NDP-αMSH; settings: compound at 10 μM; for A4 radioligand binding inhibition: human melanocortin MC4 membranes
T11 construct: purchased Perkin Elmer Biosignal
T11 sequence (P32245 whole entry): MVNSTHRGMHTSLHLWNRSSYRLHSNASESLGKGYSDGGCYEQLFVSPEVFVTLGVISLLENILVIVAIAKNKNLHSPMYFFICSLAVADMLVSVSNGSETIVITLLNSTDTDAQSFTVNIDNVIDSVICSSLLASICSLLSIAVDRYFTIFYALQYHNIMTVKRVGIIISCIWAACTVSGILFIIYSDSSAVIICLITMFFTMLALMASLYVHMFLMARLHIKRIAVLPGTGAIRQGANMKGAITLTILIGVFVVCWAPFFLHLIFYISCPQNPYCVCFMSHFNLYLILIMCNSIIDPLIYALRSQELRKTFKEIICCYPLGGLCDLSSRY
In short: as §1

T1 sequence (P41146 whole entry): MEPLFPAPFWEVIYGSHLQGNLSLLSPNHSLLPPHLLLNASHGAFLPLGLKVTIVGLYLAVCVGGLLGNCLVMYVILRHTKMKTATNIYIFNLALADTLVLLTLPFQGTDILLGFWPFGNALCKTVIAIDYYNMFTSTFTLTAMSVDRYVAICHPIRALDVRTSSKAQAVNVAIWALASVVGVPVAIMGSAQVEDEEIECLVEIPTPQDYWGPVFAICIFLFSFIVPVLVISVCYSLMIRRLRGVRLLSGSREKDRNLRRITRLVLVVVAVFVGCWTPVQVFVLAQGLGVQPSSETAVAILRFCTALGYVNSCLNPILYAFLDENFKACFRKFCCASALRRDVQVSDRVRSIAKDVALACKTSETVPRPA

| Structure (SMILES) | A10 radioligand binding inhibition [1] | A9 radioligand binding inhibition [2] | A7 radioligand binding inhibition [3] | A6 radioligand binding inhibition [4] | A5 radioligand binding inhibition [5] | A8 radioligand binding inhibition [6] | A3 radioligand binding inhibition [7] | A2 radioligand binding inhibition [8] | A11 radioligand binding inhibition [9] | A1 radioligand binding inhibition [10] | A4 radioligand binding inhibition [11] | other results |
| --- | --- | --- | --- | --- | --- | --- | --- | --- | --- | --- | --- | --- |
| COC[C@H]1OC(OCc2ccc3ccccc3c2)[C@H](NC(=O)CNC(=N)N)[C@@H](OCc2ccc(-c3ccccc3)cc2)[C@@H]1O (stereo partly shown) [compound 14] | − (“−” indicates less than 50% inhibition at 10 μM) | − (“−” indicates less than 50% inhibition at 10 μM) | + (“+” indicates greater than 50% inhibition at 10 μM) | + (“+” indicates greater than 50% inhibition at 10 μM) | + (“+” indicates greater than 50% inhibition at 10 μM) | − (“−” indicates less than 50% inhibition at 10 μM) | − (“−” indicates less than 50% inhibition at 10 μM) | − (“−” indicates less than 50% inhibition at 10 μM) | − (“−” indicates less than 50% inhibition at 10 μM) | − (“−” indicates less than 50% inhibition at 10 μM) | + (“+” indicates greater than 50% inhibition at 10 μM) | – |
| CSC1OC(COCc2ccc(Cl)cc2)C(O)C(OCc2ccccc2)C1NC(=O)CCNC(=N)N (stereo not shown) [compound 254] | – | – | – | – | – | – | – | – | – | – | – | A10: inhibition of radioligand binding ([1]; [125I]-Nociceptin, FlashPlate): − (“−” indicates less than 50% inhibition at 10 μM); A9: inhibition of radioligand binding ([2]; [125I]-PYY, FlashPlate): − (“−” indicates less than 50% inhibition at 10 μM); A7: inhibition of radioligand binding ([3]; [3H]-Naloxone, FlashPlate): − (“−” indicates less than 50% inhibition at 10 μM); A6: inhibition of radioligand binding ([4]; [125I]-S36057, FlashPlate): − (“−” indicates less than 50% inhibition at 10 μM); A5: inhibition of radioligand binding ([5]; [125I]-NDP-αMSH, FlashPlate): − (“−” indicates less than 50% inhibition at 10 μM); A8: inhibition of radioligand binding ([6]; [125I]-Substance P, filtration): + (“+” indicates greater than 50% inhibition at 10 μM); A3: inhibition of radioligand binding ([7]; [125I]-NDP-αMSH, FlashPlate): − (“−” indicates less than 50% inhibition at 10 μM); A2: inhibition of radioligand binding ([8]; [3H]-Diprenorphine, filtration): − (“−” indicates less than 50% inhibition at 10 μM); A11: inhibition of radioligand binding ([9]; [125I]-Urotensin II, FlashPlate): − (“−” indicates less than 50% inhibition at 10 μM); A1: inhibition of radioligand binding ([10]; [3H]-Bremazocine, FlashPlate): − (“−” indicates less than 50% inhibition at 10 μM); A4: inhibition of radioligand binding ([11]; [125I]-NDP-αMSH, FlashPlate): − (“−” indicates less than 50% inhibition at 10 μM) |
| CO[C@H]1[C@H](O)[C@@H](COCc2ccc(Cl)cc2)OC(OCc2ccc3ccccc3c2)[C@@H]1NC(=O)CCCNC(=N)N (stereo partly shown) [compound 81] | − (“−” indicates less than 50% inhibition at 10 μM) | − (“−” indicates less than 50% inhibition at 10 μM) | + (“+” indicates greater than 50% inhibition at 10 μM) | − (“−” indicates less than 50% inhibition at 10 μM) | + (“+” indicates greater than 50% inhibition at 10 μM) | + (“+” indicates greater than 50% inhibition at 10 μM) | + (“+” indicates greater than 50% inhibition at 10 μM) | + (“+” indicates greater than 50% inhibition at 10 μM) | − (“−” indicates less than 50% inhibition at 10 μM) | − (“−” indicates less than 50% inhibition at 10 μM) | + (“+” indicates greater than 50% inhibition at 10 μM) | – |
| CSC1O[C@H](COCc2ccc3ccccc3c2)[C@@H](O)[C@@H](OCc2ccc(-c3ccccc3)cc2)[C@H]1NC(=O)CCNC(=N)N (stereo partly shown) [compound 298] | – | – | – | – | – | – | – | – | – | – | – | A10: inhibition of radioligand binding, human opioid (ORL1) ([1]; [125I]-Nociceptin): − (“−” indicates less than 50% inhibition at 10 μM); A9: inhibition of radioligand binding, human neuropeptide Y (NPY-Y1) ([2]; [125I]-PYY): − (“−” indicates less than 50% inhibition at 10 μM); A7: inhibition of radioligand binding, human μ-opioid (MOP) ([3]; [3H]-Naloxone): − (“−” indicates less than 50% inhibition at 10 μM); A6: inhibition of radioligand binding, human melanin-concentrating hormone (MCH1) ([4]; [125I]-S36057): − (“−” indicates less than 50% inhibition at 10 μM); A5: inhibition of radioligand binding, human melanocortin (MC5) ([5]; [125I]-NDP-αMSH): + (“+” indicates greater than 50% inhibition at 10 μM); A8: inhibition of radioligand binding, human neurokinin (NK1) ([6]; [125I]-Substance P): + (“+” indicates greater than 50% inhibition at 10 μM); A3: inhibition of radioligand binding, human melanocortin (MC3) ([7]; [125I]-NDP-αMSH): − (“−” indicates less than 50% inhibition at 10 μM); A2: inhibition of radioligand binding, human κ-opioid (KOP) ([8]; [3H]-Diprenorphine): − (“−” indicates less than 50% inhibition at 10 μM); A11: inhibition of radioligand binding, mouse urotensin (mUR2) ([9]; [125I]-Urotensin II): − (“−” indicates less than 50% inhibition at 10 μM); A1: inhibition of radioligand binding, human δ-opioid (DOP) ([10]; [3H]-Bremazocine): − (“−” indicates less than 50% inhibition at 10 μM); A4: inhibition of radioligand binding, human melanocortin (MC4) ([11]; [125I]-NDP-αMSH): − (“−” indicates less than 50% inhibition at 10 μM) |
| COC[C@H]1OC(OCCc2ccccc2)[C@H](NC(=O)CCCN)[C@@H](OCc2ccccc2)[C@@H]1O (stereo partly shown) [compound 47] | − (“−” indicates less than 50% inhibition at 10 μM) | − (“−” indicates less than 50% inhibition at 10 μM) | − (“−” indicates less than 50% inhibition at 10 μM) | − (“−” indicates less than 50% inhibition at 10 μM) | − (“−” indicates less than 50% inhibition at 10 μM) | + (“+” indicates greater than 50% inhibition at 10 μM) | − (“−” indicates less than 50% inhibition at 10 μM) | − (“−” indicates less than 50% inhibition at 10 μM) | − (“−” indicates less than 50% inhibition at 10 μM) | − (“−” indicates less than 50% inhibition at 10 μM) | − (“−” indicates less than 50% inhibition at 10 μM) | – |
